Measured values published in ChEMBL document CHEMBL1955803, “Preclinical in vivo evaluation of efficacy, pharmacokinetics, and pharmacodynamics of a novel MEK1/2 kinase inhibitor RO5068760 in multiple tumor models” (Mol Cancer Ther, 2010).
Activity calls are given as the source filed them. No cut-off for these calls is given here.

Key:
Mus musculus [1] = experiment: Toxicity in human MIAPaCa2 cells expressing K-Ras G12C mutant xenografted nude mouse assessed as gross signs of adverse effect at 500 mg/kg, po administered weekly once for 3 weeks; format: organism-based, MIA PaCa-2; set-up: dose 500 mg/kg, route oral; details: in vivo, 504 h
Mus musculus [2] = experiment: Average drug concentration in human H460 cells expressing K-Ras Q61H mutant xenografted nude mouse plasma at 200 mg/kg, po qd; format: ADME, organism-based; set-up: dose 200 mg/kg, route oral; details: in vivo
[3] = Growth inhibition of human LOX cells expressing B-Raf V600E mutant by MTT assay; format: functional, cell-based
Mus musculus [4] = experiment: Inhibition of MEK-mediated ERK phosphorylation in tumor of human LOX cells expressing B-Raf V600E mutant xenografted nude mouse at 100 mg/kg, po after 8 hrs by Western blot analysis relative to control; format: functional
Mus musculus [5] = experiment: Toxicity in human HT-29 cells expressing B-Raf V600E mutant xenografted nude mouse assessed as gross signs of adverse effect at 25 to 100 mg/kg, po bid for 3 weeks; format: organism-based; set-up: dose 25-100 mg/kg, route oral; details: in vivo, 504 h
[6] = Cmax in human H460 cells expressing K-Ras Q61H mutant xenografted nude mouse at 50 mg/kg, po bid; format: ADME, organism-based; set-up: dose 50 mg/kg, route oral; details: in vivo
HT-29 [7] = experiment: Growth inhibition of human HT-29 cells expressing B-Raf V600E mutant by MTT assay; format: functional, cell-based
Mus musculus [8] = experiment: Average drug concentration in human H460 cells expressing K-Ras Q61H mutant xenografted nude mouse plasma at 25 mg/kg, po bid; format: ADME, organism-based; set-up: dose 25 mg/kg, route oral; details: in vivo
HT-29 [9] = experiment: Cell cycle arrest in human HT-29 cells assessed as accumulation at G1 phase; format: functional, cell-based
Mus musculus [10] = experiment: Inhibition of MEK-mediated ERK phosphorylation in tumor of human HT-29 cells expressing B-Raf V600E mutant xenografted nude mouse at 100 mg/kg, po after 4 hrs by Western blot analysis relative to control; format: functional; details: HT-29, 4 h
[11] = Antitumor activity against human LOX cells expressing B-Raf V600E mutant xenografted in nude mouse assessed as tumor growth inhibition at 100 mg/kg, po bid; format: functional; details: read-out: GI
[12] = AUC (0 to 12 hrs) in human H460 cells expressing K-Ras Q61H mutant xenografted nude mouse at 100 mg/kg, po bid; format: ADME, organism-based; set-up: time < 12 hr, dose 100 mg/kg, route oral; details: in vivo
[13] = target: T1, Dual specificity mitogen-activated protein kinase kinase 1 (Homo sapiens, UniProt Q02750); experiment: Inhibition of MEK1 in human H460 cells assessed as inhibition of ERK phosphorylation by Western blot analysis; format: cell-based
T1 sequence (Q02750 whole entry): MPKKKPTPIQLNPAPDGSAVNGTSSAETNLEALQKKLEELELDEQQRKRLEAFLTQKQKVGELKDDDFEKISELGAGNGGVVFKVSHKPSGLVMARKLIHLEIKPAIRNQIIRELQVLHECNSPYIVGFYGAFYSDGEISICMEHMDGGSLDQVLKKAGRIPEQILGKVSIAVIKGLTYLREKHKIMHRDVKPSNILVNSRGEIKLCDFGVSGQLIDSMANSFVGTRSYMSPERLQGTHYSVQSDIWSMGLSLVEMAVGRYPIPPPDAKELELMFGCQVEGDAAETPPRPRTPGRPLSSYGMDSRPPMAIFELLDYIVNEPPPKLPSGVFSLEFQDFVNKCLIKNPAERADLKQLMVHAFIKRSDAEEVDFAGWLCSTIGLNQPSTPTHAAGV

[14] = Plasma concentration in human HT-29 cells expressing B-Raf V600E mutant xenografted nude mouse at 100 mg/kg, po after 12 hrs; format: ADME, organism-based; set-up: dose 100 mg/kg, route oral
[15] = AUC (0 to 12 hrs) in human MIAPaCa2 cells expressing K-Ras G12C mutant xenografted nude mouse at 100 mg/kg, po bid; format: ADME, organism-based, MIA PaCa-2; set-up: time < 12 hr, dose 100 mg/kg, route oral; details: in vivo
[16] = Plasma concentration in human HT-29 cells expressing B-Raf V600E mutant xenografted nude mouse at 50 mg/kg, po after 8 hrs; format: ADME, organism-based; set-up: dose 50 mg/kg, route oral
[17] = Drug level in human HT-29 cells expressing B-Raf V600E mutant xenografted nude mouse tumor at 100 mg/kg, po after 8 hrs; format: ADME, organism-based, Neoplasm; set-up: dose 100 mg/kg, route oral; details: read-out: Drug uptake
Mus musculus [18] = experiment: Average drug concentration in human HT-29 cells expressing B-Raf V600E mutant xenografted nude mouse plasma at 25 mg/kg, po bid; format: ADME, organism-based; set-up: dose 25 mg/kg, route oral; details: in vivo
[19] = Cmax in human HT-29 cells expressing B-Raf V600E mutant xenografted nude mouse at 50 mg/kg, po bid; format: ADME, organism-based; set-up: dose 50 mg/kg, route oral; details: in vivo
[20] = Cmax in human HT-29 cells expressing B-Raf V600E mutant xenografted nude mouse at 100 mg/kg, po bid; format: ADME, organism-based; set-up: dose 100 mg/kg, route oral; details: in vivo
HT-29 [21] = experiment: Reversible growth inhibition of human HT-29 cells expressing B-Raf V600E mutant measured up to 3 days by MTT assay; format: functional, cell-based
Mus musculus [22] = experiment: Average drug concentration in human MIAPaCa2 cells expressing K-Ras G12C mutant xenografted nude mouse plasma at 200 mg/kg, po qd; format: ADME, organism-based, MIA PaCa-2; set-up: dose 200 mg/kg, route oral; details: in vivo
Mus musculus [23] = experiment: Inhibition of MEK-mediated ERK phosphorylation in tumor of human LOX cells expressing B-Raf V600E mutant xenografted nude mouse at 100 mg/kg, po after 1 hr by Western blot analysis relative to control; format: functional
[24] = Plasma concentration in human LOX cells expressing B-Raf V600E mutant xenografted nude mouse at 100 mg/kg, po after 2 hrs; format: ADME, organism-based; set-up: dose 100 mg/kg, route oral
[25] = target: T1, Dual specificity mitogen-activated protein kinase kinase 1; experiment: Inhibition of MEK1 in human HT-29 cells assessed as inhibition of ERK phosphorylation by Western blot analysis; format: cell-based
[26] = Cmax in human MIAPaCa2 cells expressing K-Ras G12C mutant xenografted nude mouse at 50 mg/kg, po bid; format: ADME, organism-based, MIA PaCa-2; set-up: dose 50 mg/kg, route oral; details: in vivo
[27] = AUC (0 to 12 hrs) in human HT-29 cells expressing B-Raf V600E mutant xenografted nude mouse at 100 mg/kg, po bid; format: ADME, organism-based; set-up: time < 12 hr, dose 100 mg/kg, route oral; details: in vivo
[28] = Plasma concentration in human LOX cells expressing B-Raf V600E mutant xenografted nude mouse at 100 mg/kg, po after 12 hrs; format: ADME, organism-based; set-up: dose 100 mg/kg, route oral
Mus musculus [29] = experiment: Inhibition of MEK-mediated ERK phosphorylation in tumor of human LOX cells expressing B-Raf V600E mutant xenografted nude mouse at 100 mg/kg, po after 4 hrs by Western blot analysis relative to control; format: functional
[30] = Cmax in human LOX cells expressing B-Raf V600E mutant xenografted nude mouse at 25 mg/kg, po bid; format: ADME, organism-based; set-up: dose 25 mg/kg, route oral; details: in vivo
Mus musculus [31] = experiment: Average drug concentration in human H460 cells expressing K-Ras Q61H mutant xenografted nude mouse plasma at 100 mg/kg, po bid; format: ADME, organism-based; set-up: dose 100 mg/kg, route oral; details: in vivo
Mus musculus [32] = experiment: Toxicity in human H460 cells expressing K-Ras Q61H mutant xenografted nude mouse assessed as gross signs of adverse effect at 500 mg/kg, po administered weekly once for 3 weeks; format: organism-based; set-up: dose 500 mg/kg, route oral; details: in vivo, 504 h
HT-29 [33] = experiment: Antitumor activity against human HT-29 cells expressing B-Raf V600E mutant xenografted in nude mouse assessed as tumor growth inhibition at 100 mg/kg, po bid; format: functional; details: read-out: GI
[34] = Drug level in human HT-29 cells expressing B-Raf V600E mutant xenografted nude mouse tumor at 100 mg/kg, po after 4 hrs; format: ADME, organism-based, Neoplasm; set-up: dose 100 mg/kg, route oral; details: read-out: Drug uptake
[35] = Drug level in human HT-29 cells expressing B-Raf V600E mutant xenografted nude mouse tumor at 50 mg/kg, po after 12 hrs; format: ADME, organism-based, Neoplasm; set-up: dose 50 mg/kg, route oral; details: read-out: Drug uptake
[36] = AUC (0 to 12 hrs) in human H460 cells expressing K-Ras Q61H mutant xenografted nude mouse at 25 mg/kg, po bid; format: ADME, organism-based; set-up: time < 12 hr, dose 25 mg/kg, route oral; details: in vivo
Mus musculus [37] = experiment: Toxicity in human MIAPaCa2 cells expressing K-Ras G12C mutant xenografted nude mouse assessed as gross signs of adverse effect at 25 to 200 mg/kg, po bid for 3 weeks; format: organism-based, MIA PaCa-2; set-up: dose 25-200 mg/kg, route oral; details: in vivo, 504 h
[38] = Plasma concentration in human HT-29 cells expressing B-Raf V600E mutant xenografted nude mouse at 50 mg/kg, po after 4 hrs; format: ADME, organism-based; set-up: dose 50 mg/kg, route oral
Mus musculus [39] = experiment: Average drug concentration in human LOX cells expressing B-Raf V600E mutant xenografted nude mouse plasma at 12.5 mg/kg, po bid; format: ADME, organism-based; set-up: dose 12.5 mg/kg, route oral; details: in vivo
[40] = Drug level in human HT-29 cells expressing B-Raf V600E mutant xenografted nude mouse tumor at 100 mg/kg, po after 12 hrs; format: ADME, organism-based, Neoplasm; set-up: dose 100 mg/kg, route oral; details: read-out: Drug uptake

Cave (Mus musculus [2]): 5083 ng/mL
Cmax [6]: 8080 ng/mL
IC50 (HT-29 [7]): 110 nM
IC90 (HT-29 [7]): 560 nM
Cave (Mus musculus [8]): 733 ng/mL
AUC at 12 h [12]: 62900 ng·h/mL
IC50 [13]: 82 nM
concentration at 12 h [14]: 195 ng/mL
AUC at 12 h [15]: 32700 ng·h/mL
concentration at 8 h [16]: 1260 ng/mL
concentration at 8 h [17]: 293 ng/g
Cave (Mus musculus [18]): 315 ng/mL
Cmax [19]: 1300 ng/mL
Cmax [20]: 4070 ng/mL
Cave (Mus musculus [22]): 2758 ng/mL
concentration at 2 h [24]: 6300 ng/mL
IC50 [25]: 12 nM
Cmax [26]: 5240 ng/mL
AUC at 12 h [27]: 18400 ng·h/mL
concentration at 12 h [28]: 72 ng/mL
Cmax [30]: 3790 ng/mL
Cave (Mus musculus [31]): 5242 ng/mL
concentration at 4 h [34]: 945 ng/g
concentration at 12 h [35]: 188 ng/g
AUC at 12 h [36]: 8800 ng·h/mL
concentration at 4 h [38]: 4030 ng/mL
Cave (Mus musculus [39]): 388 ng/mL
concentration at 12 h [40]: 321 ng/g
Compound: C[C@@H](c1ccccc1)[C@@H](C(=O)Nc1ccc(I)cc1F)N1C(=O)N[C@H](c2ccc(OC[C@H](O)CO)cc2)C1=O
Activity (Mus musculus [1]): Non-toxic
IC50 [3]: 18 nM
IC90 [3]: 720 nM
inhibition in vivo at 100 mg/kg (Mus musculus [4]): 48%
Activity (Mus musculus [5]): Non-toxic
growth inhibition (GI) (HT-29 [7]; TDE = time-dependent effect): tde
Activity (HT-29 [9]): Active
inhibition in vivo at 100 mg/kg (Mus musculus [10]): 79%
inhibition in vivo at 100 mg/kg [11]: > 100%
Activity (HT-29 [21]): Active
inhibition in vivo at 100 mg/kg (Mus musculus [23]): 77%
inhibition in vivo at 100 mg/kg (Mus musculus [29]): 83%
Activity (Mus musculus [32]): Non-toxic
inhibition in vivo at 100 mg/kg (HT-29 [33]): 95%
Activity (Mus musculus [37]): Non-toxic
